Reference: patent US20180369264A1, “COMBINATION OF A CARDIAC STEROID AND AN AKT INHIBITOR FOR THE TREATMENT OF CARDIOVASCULAR DISEASES AND DISORDERS” (YISSUM RESEARCH DEVELOPMENT COMPANY OF THE HEBREW …, priority 2015, published 2018)
Several values for one entry are separate records, joined by “and”; a condition that tells them apart may be missing. Equal values may be shown once. Read-outs that look alike come from different tables or passages of the source.

Tests used:
[1] = tested on: wild-type zebrafish larvae heart; type: in vivo, zebrafish (Danio rerio); settings: for effect on force of contraction / effect on heart rate: 1 nM
Description: Experiments were performed on wild-type (WT, AB strain) zebrafish (Danio rerio). The fish were maintained in accordance with the principles established by the NIH. […] The fish were kept in swimming medium (E3 medium) in small aquaria at 28° C. and maintained under a 14h: 10h light:dark cycle. The zebrafish larvae were maintained in the presence of 0.1% methylene blue (M9140, Sigma-Aldrich Inc, Israel) at 28° C. All measurements were taken in embryos at 72 hours post fertilization (hpf).
Ouabain, bufalin, digoxin, acetylcholine, carbachol, […] (pp2) and U0126 (1,4-diamino-2,3-dicyano-1,4-bis(2-aminophenylthio)butadiene) were purchased from Sigma-Aldrich Inc., Israel. The compounds were dissolved in egg water (0.3 g Instant Ocean Salt in distilled water) to a final selected concentration, as specified in the following examples. […]
(§1) Filming process Zebrafish larvae heart imaging was performed using an Olympus CKX41 (Japan) […] microscope with ×10 or ×20 magnification, and integrated incandescent illumination. A FastCam imi-tech (Korea) high speed digital camera with 640×480 pixel gray scale image sensor was mounted on the microscope, using ImCam software (IMI Technology, Co. Ltd) for high speed video recording. The larvae were anesthetized by placing them in filming/anesthetizing medium. Each larva in 0.5 ml filming/anesthetizing medium was transferred to a 96-well tissue culture plate at room temperature and sequential images of the heart were obtained, with the larvae positioned on their side, at 80 fps during 10 seconds with a shutter speed of 0.016 seconds.
Physiological parameters of cardiovascular performance, as indicated hereinbelow, were evaluated in the zebrafish larvae. Image analysis applications ImageJ (NIH, USA) were used, allowing the delineation of the endomyocardial border at the end of systole or end of diastole to define the ventricular area. Sequential still frames were analyzed to capture ventricular end-systole and end-diastole images. End Systolic Area (ESA, FIG. 1B) and End Diastolic Area (EDA, FIG. 1C) were used to calculate Fractional Area Change (FAC), according to the equation: FAC=(EDA-ESA)/EDA*100. The Ejection Fraction (EF) was determined by an independent estimate of ventricular volume. This was achieved by placing scan lines across the midventricular short axis (SA) and long axis (LA) at the end of systole (FIG. 1D) and diastole (FIG. 1E). […] EF was then calculated according to the equation: EF=(EDV-ESV)/EDV*100. Heart rate (HR) was measured in beats per minute. Cardiac output (CO) was calculated according to the equation: CO=(EDV-ESV)*HR. A minimum of five sequential pairs of systolic and diastolic cycles were measured and analyzed in 9-12 larvae for each treatment.

[2] = tested on: primary adult zebrafish cardiomyocytes; assay: Primary adult zebrafish cardiomyocyte contractility; type: cell-based
Description: Adult (4 to 12-month-old) ventricular myocytes were obtained by enzymatic dissociation (with collagenase II and IV, at 5 mg/ml, each). The zebrafish were stunned by a blow to the head and the brain was pithed. The heart was quickly removed and placed in a small Petri dish containing 10 ml isolation solution: 100 mM NaCl, 10 mM KCl, 1.2 mM KH2PO4, 4 mM MgSO4, 50 mM taurine, 20 mM glucose, and 10 mM Hepes, pH 6.9. The ventricle was cut free from the bulbus and atrium under a binocular. Ventricles from 3 fish were incubated for 45 minutes at 32° C. in a solution containing perfusion buffer (150 mM NaCl, 5.4 mM KCl, 1.5 mM MgSO4, 0.4 mM NaH2PO4, 2 mM CaCl2, 10 mM glucose, and 10 mM Hepes, pH 7.7). Collagenases II and IV (Gibco, NY, USA, 5 mg/ml each) and additional CaCl2 (2.012 mM final concentration) were added. Following Eppendorf centrifugation (1 minute, 250×g at room temperature) the precipitated cells were suspended in 1 ml perfusion buffer for 30 minutes at room temperature before use.
Cells were transferred to a chamber with a quartz base and examined using an inverted epifluorescence microscope (Nikon Diaphot 200, Japan). The myocytes were field-stimulated (0.5 Hz, 70 V, square waves) and contractions were measured using a video motion edge detector (Crescent Electronics, Sandy, Utah, USA) at the rate of 5 Hz. Cardiomyocyte performance was calculated as the percentage of resting cell length. The slopes of contraction and relaxation (+dL/dt and −dL/dt) were calculated from the linear portions of the changes in contractility. 9 cells per each group were measured. Each of the experiments was repeated at least 3 times with identical results.

ERK = ERK phosphorylation in adult zebrafish heart (Western blot); type: in vivo; settings: adult zebrafish heart, control experiments
Description: Adult zebrafish (˜12-months-old) were transferred to swimming medium containing 1 μM of CS drugs, as specified in the following examples. At various time points (5-30 min), as indicated in the following examples, the zebrafish were transferred to perfusion buffer and the hearts were immediately removed and transferred to RIPA lysis buffer (Sigma-Aldrich), and protease inhibitor cocktail (P8340, Sigma-Aldrich), at a 1:100 dilution). The tissue was homogenized in an ultrasonic homogenizer (Microson, NY, USA) and aliquots of the homogenate were stored at −70° C. until used.
Protein dilution and separation on SDS-PAGE electrophoresis, their transfer to a polyvinylidene fluoride membrane were carried out. […] The membranes were washed with TBS containing 0.1% Tween and exposed to horseradish peroxidase-conjugated secondary goat anti-rabbit IgG antibody (1:50,000). The membranes were stripped prior to their exposure to a different antibody. Detection was carried out with the aid of a Luminata™ Crescendo Western HRP Substrates, according to the manufacturer's instructions.

Akt = tested on: Akt; set-up: scale not given here; settings: class symbols, key not given; cited from earlier work
[3] = in vivo; cited from earlier work
[4] = tested on: zebrafish accordion mutant (acc) larvae heart; assay: In-vivo heart contractility measurements in zebrafish acc mutant larvae; set-up: species or system zebrafish (Danio rerio); settings: 1 nM, 90 minutes
Description: Ouabain, bufalin, digoxin, acetylcholine, carbachol, […] (pp2) and U0126 (1,4-diamino-2,3-dicyano-1,4-bis(2-aminophenylthio)butadiene) were purchased from Sigma-Aldrich Inc., Israel. The compounds were dissolved in egg water (0.3 g Instant Ocean Salt in distilled water) to a final selected concentration, as specified in the following examples. The larvae in 20 μL of E3 medium were transferred to the egg water solution containing one or two of the above specified drugs of choice, and incubated for 60-90 minutes at 28° C.
as §1
Physiological parameters of cardiovascular performance, as indicated hereinbelow, were evaluated in the zebrafish larvae. […] Sequential still frames were analyzed to capture ventricular end-systole and end-diastole images. […] The Ejection Fraction (EF) was determined by an independent estimate of ventricular volume. […] EF was then calculated according to the equation: EF=(EDV-ESV)/EDV*100. Heart rate (HR) was measured in beats per minute. Cardiac output (CO) was calculated according to the equation: CO=(EDV-ESV)*HR. A minimum of five sequential pairs of systolic and diastolic cycles were measured and analyzed in 9-12 larvae for each treatment.

[5] = wt, ERK inhibitor experiment, 0.1 nM Oua, 10 nM PD98059, 20 minutes, 0.5 Hz

CC(C)(C)n1nc(-c2ccc(Cl)cc2)c2c(N)ncnc21 [PP2]
effect of inhibitor alone on heart function / basal contractility ([1]; PP2 50 nM, U0126 1 μM, MK-2206 10 nM for 2 hours): did not affect heart function | effect on CS-induced increase in contractility ([1]; inhibitor 30 minutes (PP2 50 nM; U0126 1 μM), then CS, measured 90 minutes later): completely abolished the CS-induced increase in contractility

COc1cccc(-c2cc(=O)c3ccccc3o2)c1N [PD98059, 2′-amino-3′-methoxyflavone]
amplitude of cell contraction, inhibitor alone ([2]; 10 nM PD98059): did not affect the amplitude of cell contraction | contractility and relaxation rise time, inhibitor alone ([2]; 10 nM PD98059): increased contractility and relaxation rise time | ouabain-induced increases in all contractility parameters in the presence of the inhibitor ([2]; 10 nM PD98059, 0.1 nM ouabain): completely prevented | Amplitude [2, 5]: 0.13 ± 0.01 | Contraction Rate (−dv/dt) [2, 5]: 0.87 ± 0.09 | Relaxation Rate (+dv/dt) [2, 5]: 0.78 ± 0.14 | effect on CS-induced increase in ERK phosphorylation (ERK): inhibit the CS-induced increase in ERK phosphorylation

CNC[C@H](O)c1ccc(O)c(O)c1 [adrenalin]
effect on heart contractility and rate ([1]; zebrafish, in vivo): significant increase in heart contractility and rate | effect on heart force of contraction and rate ([1]; zebrafish, in vivo): increase in heart contractility and rate | increase in CO ([1]; zebrafish, in vivo): 18.34±1.97% and 30.48±2.67%

C=CCc1ccc(O)c(-c2ccc(O)c(CC=C)c2)c1 [Honokiol, 2-(4-hydroxy-3-prop-2-enylphenyl)-4-prop-2-enylphenol]
Akt (Akt): ✓

CCCCCCCCCCCCCCCCOP(=O)([O-])OCC[N+](C)(C)C [Miltefosine, hexadecyl 2-(trimethylazaniumyl)ethyl phosphate]
Akt (Akt): ✓

C[C@H]1O[C@@H](O[C@@H]2[C@@H](O)C[C@H](O[C@@H]3[C@@H](O)C[C@@H](O[C@H]4CC[C@@]5(C)[C@H](CC[C@@H]6[C@@H]5C[C@@H](O)[C@]5(C)C(C7=CC(=O)OC7)CC[C@]65O)C4)O[C@@H]3C)O[C@@H]2C)C[C@H](O)[C@H]1O (stereo partly drawn) [digoxin, 4-[(3 S,5R,8R,9S,10S,12R,13 S, 14S)-3-[(2S,4S,5R,6R)-5-[(2S,4S,5R,6R)-5-[(2S,4S,5R,6R)-4,5-dihydroxy-6-methyl-oxan-2-yl]oxy-4-hydroxy-6-methyl-oxan-2-yl]oxy-4-hydroxy-6-methyl-oxan-2-yl]oxy-12,14-dihydroxy-10,13-dimethyl-1,2,3,4,5,6,7,8,9,11,12,15,16,17-tetradecahydrocyclopenta[a]phenanthren-17-yl]-5H-furan-2-one]
plasma concentration at which significant signs of toxicity are observed [3]: 3 nM | plasma concentration considered beneficial [3]: about 1 nM | effect on heart contractility [4]: no effect on heart contractility | effect on force of contraction [1]: increased significantly the force of contraction | effect on heart rate [1]: without affecting heart rate | concentration required for a similar effect, relative to bufalin or ouabain ([1]; vs 0.1 nM bufalin or ouabain): about tenfold

C[C@]12CC[C@H](O)C[C@H]1CC[C@@H]1[C@@H]2CC[C@]2(C)[C@@H](c3ccc(=O)oc3)CC[C@]12O [bufalin, 5-[(3 S,5R,8R,9S,10S,13R,14S,17R)-3,14-dihydroxy-10,13-dimethyl-1,2,3,4,5,6,7,8,9,11,12,15,16,17-tetradecahydrocyclopenta[a]phenanthren-17-yl]pyran-2-one]
effect on heart contractility [4]: no effect on heart contractility | effect on force of contraction [1]: increased significantly the force of contraction | effect on heart rate [1]: without affecting heart rate | concentration producing a significant increase in heart contractility ([1]; added to larvae swimming medium): 0.1 nM

N#CC(=C(N)Sc1ccccc1N)C(C#N)=C(N)Sc1ccccc1N [U0126, 1,4-diamino-2,3-dicyano-1,4-bis(2-aminophenylthio)butadiene]
effect of inhibitor alone on heart function / basal contractility ([1]; zebrafish, in vivo): did not affect basal contractility | effect on CS-induced increase in contractility ([1]; zebrafish, in vivo): prevented the CS-induced increase in contractility | effect on CS-induced increase in ERK phosphorylation (ERK): inhibit the CS-induced increase in ERK phosphorylation

Cc1ccccc1CN1C2=NCCN2C(=O)C2=C1CCN(Cc1ccccc1)C2 [TIC10 Analogue, 2,6,7,8,9,10-hexahydro-10-[(2-methylphenyl)methyl]-7-(phenylmethyl)-imidazo[1,2-a]pyrido[4,3-d]pyrimidin-5(3H)-one]
Akt (Akt): ✓

C[N+](C)(C)CCOC(N)=O [carbachol]
reduction in cardiac output (CO) ([1]; 1 μM, 90 minutes, wt larvae): 10.39±2.2% | reduction in cardiac output (CO) ([1]; 10 μM, 90 minutes, wt larvae): 16.92±3% | effect on heart force of contraction and rate ([1]; 1 and 10 μM, 90 minutes, wt larvae): decreased the heart force of contraction and rate

Cc1ccccc1CN1C(=O)C2=C(CCN(Cc3ccccc3)C2)N2CCN=C12 [TIC10, 2,4,6,7,8,9-hexahydro-4-[(2-methylphenyl)methyl]-7-(phenylmethyl)-imidazo[1,2-a]pyrido[3,4-e]pyrimidin-5(1H)-one]
Akt (Akt): ✓
